The record followed here is US12064420B2, “Tie-2 activators targeting the Schlemm's canal” (EyePoint Pharmaceuticals, Inc., priority 2019, dated 2024).

Structures are written as SMILES.

The test system of one experiment is Tie-2. Put plainly: Tie-2 phosphorylation in Schlemm's canal, whole mount immunofluorescence. It is filed as in vivo, mouse. To be noted: 1 hour after single topical ocular administration of 4% eye drops. The protocol: VE-PTP expression was assessed in the endothelium of SC in VE-PTP knock-in reporter mice expressing a nuclear-localizing β-galactosidase from the endogenous VE-PTP promoter (VE-PTP+/mut). C57BL/6JRj mice were also used in the experiments as control animals. Mice were anaesthetized using ketamine (125 mg/kg) and xylazine (12.5 mg/kg). 10 μL of Compound 1 eye drop solution (4% Compound 1) or vehicle was applied to each eye. Mice were euthanized 1 hour following dosing, and the eyes were processed for immunofluorescence analysis to detect Tie-2 phosphorylation. […]
To evaluate VE-PTP mediated signaling, tyrosine phosphorylation and activation of Tie-2 in SC following VE-PTP inhibition was assessed one hour following a single topical ocular administration of Compound 1. […]

Experiment [1] deals with ocular normotensive patients. Nature of the experiment: Phase 1B multiple-ascending dose study of Compound 1 ophthalmic solution, IOP. It is filed as in vivo, human. The settings on record: for mean diurnal IOP reduction in the study eye, relative to the 15 mg/mL dose: ANCOVA model. The protocol: A multi-center, double-masked, randomized, placebo-controlled, multiple-ascending dose (MAD) cohort study in up to 48 ocular normotensive patients was conducted. For subjects in cohort 1, IOP was between 12 mmHg and 23 mmHg (inclusive) in both eyes on Day −1. Cohorts 2-4 were limited to subjects with pre-treatment IOP≥16 mmHg and ≤23 mmHg in at least one eye and ≤23 mmHg in both eyes at all timepoints on two separate days of IOP assessment during screening. Subjects who received additional carbonic-anhydrase inhibiting drops or cholinergic agonist drops were washed-out for at least 7 days prior to Day −1.
On Day −1 (day before first day of dosing), day 1, and day 7, for all cohorts, a baseline diurnal time point assessment of IOP in both eyes occurred at pre-dose, and 2, 4, and 8 hours post-dose relative to the planned dosing time the following day.
For cohort 1, on the morning of day 1 and day 2, all subjects were administered a single dose (one drop of approximately 30 μL of the dosing solution (Compound 1 or placebo) corresponding to the respective dose level) into the right eye only. If no AEs related to the investigational medicinal product (IMP) that represented a cause for concern were observed, then treatment was administered to both eyes once daily on the mornings of days 3 to 7. For all subsequent cohorts, dose administration was to both eyes on all 7 days (except cohort 4, in which treatment was administered in both eyes twice daily (AM and PM) on days 1-6 with a final single dose in both eyes on the morning of day 7).
Diurnal time point assessments of IOP were performed on day 1 and day 7 in both eyes at pre-dose, and 2, 4, and 8 hours post-dose in all cohorts.
The Compound 1 ophthalmic solution used for the trial was formulated as a sterile unpreserved solution of Compound 1 (0.5% w/v to 4.0% w/v, or 5 mg/mL to 40 mg/mL; as the sodium salt) in a vehicle containing 15% w/v HPβCD and 1% w/v mannitol and adjusted to a pH of 6.5-7.5 with 1N Hydrochloric Acid and/or 1N Sodium Hydroxide. The solution was filtered through sterile 0.22-μm filters, and 0.5 mL was aseptically filled into single-use sterile dose administration bottles suitable for ophthalmic delivery. Placebo was the same as the vehicle for the Compound 1 ophthalmic solution. Compound 1 was stored at United States Pharmacopeia (USP) controlled room temperature.

On to `COC(=O)N[C@@H](Cc1ccccc1)C(=O)N[C@@H](Cc1ccc(NS(=O)(=O)O)cc1)c1csc(-c2cccs2)n1` [Compound 1, 4-{(S)-2-[(S)-2-(Methoxycarbonylamino)-3-phenylpropanamido]-2-[2-(thiophen-2-yl)thiazol-4-yl]ethyl}phenylsulfamic acid], for which the “staining of Schlemm's canal for tyrosine phosphorylated Tie-2 (pY992-Tie-2)” value with Tie-2 is listed as “enhanced”. Also, the “mean diurnal IOP reduction in the study eye, relative to the 15 mg/mL dose” value in experiment [1] (40 mg/mL BID topical) was −2.24 mmHg; in experiment [1] (40 mg/mL QD topical), −1.93 mmHg. In experiment [1] (40 mg/ml dose, 12 hours after the previous dose), the “IOP on day 7 at the 0-hour, pre-dose time point” value is “persistent TOP reduction”. Also, the “IOP change from baseline at 2, 4, and 8 hours post-dose” value in experiment [1] (40 mg/ml dose, days 1 and 7) is on record as “significant TOP reductions from baseline”.
